Measurements from ChEMBL document CHEMBL5365543, “Benzamidine Conjugation Converts Expelled Potential Active Agents into Antifungals against Drug-Resistant Fungi” (J Med Chem, 2023).
Converted amounts (≈) assume the structure as drawn. The source made the active and inactive calls. The rule behind the calls is not given here.

Experiments:
[1] = Drug accumulation in Candida albicans SC5314 by confocal laser scanning microscopic analysis; type: ADME
[2] = tested on: Candida albicans; assay: Induction of drug resistance in wild-type Candida albicans SC5314 assessed as change in MIC at 0.5 times of MIC measured after 30 passages by broth microdilution method; type: functional
[3] = tested on: Candida albicans; assay: Antifungal activity against wild-type Candida albicans SC5314 assessed as inhibition of fungal growth measured after 24 hrs by CLSI based microtiter plate analysis; type: functional; settings: for MIC80: Candida albicans
[4] = Drug accumulation in wild-type Candida albicans SC5314 at 50 microg/ml incubated for 3 hrs by HPLC analysis; type: ADME; settings: dose 50 µg/ml
[5] = Drug localization in mitochondria of Candida albicans SC5314 incubated for 30 mins by MitoTracker dye based confocal laser scanning microscopic analysis; type: ADME; settings: 0.5 h
[6] = tested on: [Candida] auris; assay: Antifungal activity against clinical isolate fluconazole-resistant Candida auris CBS12774 assessed as inhibition of fungal growth measured after 24 hrs by CLSI based microtiter plate analysis; type: functional; settings: Candidozyma auris
[7] = tested on: Candida albicans; assay: Antifungal activity against clinical isolate Candida albicans YEM15 overexpressing efflux pump CdrL and Cdr2 assessed as inhibition of fungal growth measured after 24 hrs by CLSI based microtiter plate analysis; type: functional
[8] = tested on: Candida albicans; assay: Antifungal activity against clinical isolate fluconazole-resistant Candida albicans G5 harbouring MRR1 mutation overexpressing MdrL assessed as inhibition of fungal growth measured after 24 hrs by CLSI based microtiter plate analysis; type: functional
[9] = tested on: Candida tropicalis; assay: Antifungal activity against clinical isolate fluconazole-resistant Candida tropicalis CT10 assessed as inhibition of fungal growth measured after 24 hrs by CLSI based microtiter plate analysis; type: functional
[10] = tested on: Candida albicans; assay: Antifungal activity against clinical isolate Candida albicans SCMRRIR34MPG2A harbouring MRR1 mutation overexpressing efflux pump MdrL assessed as inhibition of fungal growth measured after 24 hrs by CLSI based microtiter plate analysis; type: functional
[11] = tested on: Candida albicans; assay: Antifungal activity against clinical isolate fluconazole-resistant Candida albicans DSY296 harbouring TAC1 mutation overexpressing efflux pump CdrL and Cdr2 assessed as inhibition of fungal growth measured after 24 hrs by CLSI based microtiter plate analysis; type: functional
[12] = tested on: Candida albicans; assay: Antifungal activity against clinical isolate fluconazole-resistant Candida albicans CA632 assessed as inhibition of fungal growth measured after 24 hrs by CLSI based microtiter plate analysis; type: functional
[13] = tested on: [Candida] auris; assay: Antifungal activity against clinical isolate fluconazole-resistant Candida auris CBS12776 assessed as inhibition of fungal growth measured after 24 hrs by CLSI based microtiter plate analysis; type: functional; settings: Candidozyma auris
[14] = tested on: Candida albicans; assay: Antifungal activity against clinical isolate Candida albicans YEM13 overexpressing efflux pump MdrL assessed as inhibition of fungal growth measured after 24 hrs by CLSI based microtiter plate analysis; type: functional
[15] = tested on: Nakaseomyces glabratus; assay: Antifungal activity against clinical isolate fluconazole-resistant Candida glabrata CG2 assessed as inhibition of fungal growth measured after 24 hrs by CLSI based microtiter plate analysis; type: functional
[16] = tested on: Candida albicans; assay: Antifungal activity against clinical isolate fluconazole-resistant Candida albicans Gu5 harbouring TAC1 mutation overexpressing efflux pump CdrL and Cdr2 assessed as inhibition of fungal growth measured after 24 hrs by CLSI based microtiter plate analysis; type: functional
[17] = tested on: Cryptococcus neoformans; assay: Antifungal activity against clinical isolate fluconazole-resistant Cryptococcus neoformans H99 assessed as inhibition of fungal growth measured after 24 hrs by CLSI based microtiter plate analysis; type: functional
[18] = tested on: Candida albicans; assay: Antifungal activity against clinical isolate Candida albicans SCUPC2R14MPG2A harbouring UPC2 mutation overexpressing […] Erg11 assessed as inhibition of fungal growth measured after 24 hrs by CLSI based microtiter plate analysis; type: functional
[19] = tested on: Candida albicans; assay: microbe, parasite or virus in culture; type: functional; settings: DSY654, time 24 hrs
Description: Antifungal activity against efflux pump-deficient Candida albicans DSY654 assessed as inhibition of fungal growth measured after 24 hrs by CLSI based microtiter plate analysis

[20] = Cytotoxicity against mouse L929 cells assessed as inhibition of cell growth measured after 4 hrs by MTT assay; type: toxicity, cell-based
[21] = Cytotoxicity against human HBE cells assessed as inhibition of cell growth measured after 4 hrs by MTT assay; type: toxicity, cell-based
[22] = Induction of hemolysis in mouse RBC cells at 2 to 32 microg/ml incubated for 60 mins by absorbance based analysis; type: toxicity, cell-based, Erythrocyte; settings: red blood cells (erythrocytes), at 2 to 32 µg/mL, dose 2-32 µg/ml, read-out: Activity
[23] = Induction of DNA damage in human HBE cells assessed as increase in gammaH2AX level at 2 to 8 microg/ml by Western blotting analysis; type: toxicity, cell-based; settings: dose 2-8 µg/ml
[24] = tested on: Candida albicans; assay: Drug accumulation in Candida albicans SC5314 measured per 10^8 cells incubated for 3 hrs by HPLC analysis; type: functional, organism-based

Row | MIC80 ([3]; SC5314, read-out: MIC80) [mg/L] | MIC80 [19] [mg/L] | Structure (SMILES) | Drug uptake [4] | MIC80 [6] [mg/L] | MIC80 [7] [mg/L] | MIC80 [8] [mg/L] | MIC80 [9] [mg/L] | MIC80 [10] [mg/L] | MIC [3] | MIC80 ([3]; SC5314, 24 h, read-out: MIC80) [mg/L] | MIC80 [11] [mg/L] | MIC80 [12] [mg/L] | MIC80 [13] [mg/L] | MIC80 [14] [mg/L] | MIC80 [15] [mg/L] | MIC80 [16] [mg/L] | MIC80 [17] [mg/L] | MIC80 [18] [mg/L] | IC50 at 4 h [20] [mg/L] | IC50 at 4 h [21] [mg/L] | further results
1 | 16 | 8 | C=C1C[C@@]23CC[C@H]4[C@@](C)(CCC[C@@]4(C)C(=O)OCCCn4c(CC)[n+](C)c5ccccc54)[C@@H]2CC[C@]1(O)C3.[I-] | – | – | – | – | – | – | – | – | – | – | – | – | – | – | – | – | 16.5 | > 32 | hemolysis at 1 h [22]: < 2%
2 | 16 | 16 | C=C1C[C@@]23CC[C@H]4[C@@](C)(CCC[C@@]4(C)C(=O)OCCC[P+](c4ccccc4)(c4ccccc4)c4ccccc4)[C@@H]2CC[C@]1(O)C3.[I-] | – | – | – | – | – | – | – | – | – | – | – | – | – | – | – | – | 6.94 | 3.59 | hemolysis at 1 h [22]: 5.9%
3 | > 256 | 256 (≈ 804 µM) | C=C1C[C@@]23CC[C@H]4[C@@](C)(CCC[C@@]4(C)C(=O)O)[C@@H]2CC[C@]1(O)C3 [STEVIOL] | – | – | – | – | – | – | – | – | – | – | – | – | – | – | – | – | – | – | MIC [19]: 256 mg/L (≈ 804 µM); Drug uptake [24]: inactive

More lines, now with the values behind:

Row | Structure (SMILES) | MIC80 ([3]; SC5314, read-out: MIC80) [mg/L] | MIC80 [19] [mg/L] | Drug uptake [4] | MIC80 [6] [mg/L] | MIC80 [7] [mg/L] | MIC80 [8] [mg/L] | MIC80 [9] [mg/L] | MIC80 [10] [mg/L] | MIC [3] | MIC80 ([3]; SC5314, 24 h, read-out: MIC80) [mg/L] | MIC80 [11] [mg/L] | MIC80 [12] [mg/L] | MIC80 [13] [mg/L] | MIC80 [14] [mg/L] | MIC80 [15] [mg/L] | MIC80 [16] [mg/L] | MIC80 [17] [mg/L] | MIC80 [18] [mg/L] | IC50 at 4 h [20] [mg/L] | IC50 at 4 h [21] [mg/L] | further results
4 | CCN(CC)c1ccc2c(-c3ccccc3C(=O)O)c3ccc(=[N+](CC)CC)cc-3oc2c1.[Cl-] [RHODAMINE] | – | – | – | – | – | – | – | – | – | – | – | – | – | – | – | – | – | – | – | – | Drug uptake [1]: Not Active
5 | N=C(N)c1ccc(OCCCOC(=O)c2ccccc2Nc2cccc(C(F)(F)F)c2)cc1 | 8 (≈ 17.5 µM) | – | Active | – | – | – | – | – | – | – | – | – | – | – | – | – | – | – | – | – | Activity [2]: Active
6 | CCN(CC)c1ccc2cc(C(=O)OCCCCCCCCOc3ccc(C(=N)N)cc3)c(=O)oc2c1 | – | – | – | – | – | – | – | – | – | – | – | – | – | – | – | – | – | – | – | – | Drug uptake [5]: Active
7 | C=CCc1ccc(O)c(-c2ccc(OCCCOc3ccc(C(=N)N)cc3)c(CC=C)c2)c1 | – | – | Active | 8 (≈ 18.1 µM) | 8 (≈ 18.1 µM) | 8 (≈ 18.1 µM) | 16 (≈ 36.2 µM) | 8 (≈ 18.1 µM) | inactive | 8 (≈ 18.1 µM) | 8 (≈ 18.1 µM) | 8 (≈ 18.1 µM) | 16 (≈ 36.2 µM) | 8 (≈ 18.1 µM) | 16 (≈ 36.2 µM) | 8 (≈ 18.1 µM) | 8 (≈ 18.1 µM) | 8 (≈ 18.1 µM) | – | – | –
8 | C=CCc1ccc(OCCCOc2ccc(C(=N)N)cc2)c(-c2ccc(O)c(CC=C)c2)c1 | – | – | Active | 8 (≈ 18.1 µM) | 8 (≈ 18.1 µM) | 8 (≈ 18.1 µM) | 16 (≈ 36.2 µM) | 8 (≈ 18.1 µM) | inactive | 8 (≈ 18.1 µM) | 8 (≈ 18.1 µM) | 8 (≈ 18.1 µM) | 16 (≈ 36.2 µM) | 8 (≈ 18.1 µM) | 16 (≈ 36.2 µM) | 8 (≈ 18.1 µM) | 8 (≈ 18.1 µM) | 8 (≈ 18.1 µM) | – | – | –
9 | C=C1C[C@@]23CC[C@H]4[C@@](C)(CCC[C@@]4(C)C(=O)OCCCc4c5[n+](cc6c(OC)c(OC)ccc46)CCc4cc6c(cc4-5)OCO6)[C@@H]2CC[C@]1(O)C3.[I-] | 8 | 4 | – | – | – | – | – | – | – | – | – | – | – | – | – | – | – | – | 1.32 | 4.79 | hemolysis at 1 h [22]: < 2%
10 | C[C@@]12CC[C@@H]3[C@](CC[C@H]4[C@@]3(C)CCC[C@@]4(C)C(=O)OCCCOc3ccc(C(=N)N)cc3)(CC1=O)C2 | – | – | Active | 8 (≈ 16.2 µM) | 4 (≈ 8.09 µM) | 8 (≈ 16.2 µM) | 4 (≈ 8.09 µM) | 8 (≈ 16.2 µM) | inactive | 4 (≈ 8.09 µM) | 4 (≈ 8.09 µM) | 4 (≈ 8.09 µM) | 8 (≈ 16.2 µM) | 4 (≈ 8.09 µM) | 8 (≈ 16.2 µM) | 4 (≈ 8.09 µM) | 4 (≈ 8.09 µM) | 4 (≈ 8.09 µM) | – | – | Activity [23]: Non-Toxic
